| SMILES | melting point |
| --- | --- |
| C#CCn1c(-c2cc(Cl)nc(Cl)c2)nc(O)c(OC)c1=O | 227 to 228 °C |
| COc1cc(-c2cc(C(F)(F)F)nn2-c2ccc(S(C)(=O)=O)cc2)ccc1-c1ccco1 | 138 to 140 °C |
| COC(=O)c1cc(C)c(C(OC(=O)C(C)NS(=O)(=O)c2ccc(C)cc2)c2cc(-n3ccnc3)ccc2C)c(C)c1 (stereo not given) | 103 to 105 °C |
| CCC12CCC3C4CCCC=C4CCC3C1C=CC2=O (stereo not given) | 125 °C |
| CCCCCC(C)C(C)c1cc(O)c2c3c(c(=O)oc2c1)SCCC3 (stereo not given) | 131 to 133 °C |
| CC(C)ON=C(C(=O)O)c1ccccc1 | 59.5 °C |
| CN1C(=O)C(C)(Cc2ccccc2)N(C)C(=O)C1=Cc1cccnc1Cl (stereo not given) | 146 °C |
| COCCSc1ccccc1S(N)(=O)=O | 127 to 130 °C |
| COc1ccc2c(=O)c(O)cn(C)c2c1 | 228 °C |
| Fc1cccc(CC2(Cc3cccc(F)n3)c3cccnc3-c3ncccc32)n1 | 221 to 225 °C |
| O=C1c2ccccc2CS(=O)(=O)N1CC(O)CN1CCOCC1 (stereo not given) | 175 to 177 °C |
| Cc1nc(N2CCc3ccccc3CC2)c(C#N)c(=O)n1O | 168 to 172 °C |
| COc1cc(OCc2ccccn2)ccc1/C=C/C(=O)CC(=O)/C=C/c1cc2ccccc2s1 | 188 °C |
| COc1cc2c(cc1C(F)(F)F)N(C(=O)Nc1ccc(C)c(-c3cnccc3C)c1)CC2 | 138 to 140 °C |
| COc1ccc(C2=Nc3ccc(N4CCCC4)cc3C(=O)C2)cc1 | 312 to 313 °C |
| O=C(O)CSSc1ccc([N+](=O)[O-])cc1C(Cl)(Cl)Cl | 140 °C |
| O=C1c2cc3nnn(C4CC4)c(=O)c3cc2OC2CCCN12 (stereo not given) | 215 to 217 °C |
| COc1ccc(SCCSc2ccc(OC)cc2)cc1 | 108 to 110 °C |
| O=C1Nc2ccc(F)cc2C1CCCCN1CCN(c2cc(Cl)cc3c2OCCO3)CC1 (stereo not given) | 146 to 148 °C |
| CCC(O)(c1ccc(OCCCc2ccccc2)cc1)c1ccccc1OC (stereo not given) | 75 to 76 °C |
| CCc1ccc2ccc(=O)[nH]c2n1 | 133 to 134 °C |
| CC(CC#N)n1nnc2cc3c(=O)n(C(C)Cn4ncnn4)nnc3cc2c1=O (stereo not given) | 105 to 108 °C |

| SMILES | melting point |
| --- | --- |
| N#Cc1nn(-c2c(Cl)cc(C(F)(F)F)cc2Cl)c(Br)c1S(=O)(=O)C(F)(F)F | 136 to 137 °C |
| COC(=O)Cc1cc(O)nn1C | 147 to 148 °C |
| C=CCN1C2CCC3C1CCC2N3C(c1ccc(C(=O)N2CCCC2)cc1)c1cccc(O)c1 (stereo not given) | 140 to 142 °C |
| COc1ccc(N2CCN(c3c(C)c(C)c4c(c3C)C(c3cccs3)C(C)(C)O4)CC2)cc1 (stereo not given) | 139 to 141 °C |
| [N-]=[N+]=NCCOc1ccc(C(=C(c2ccc(F)cc2)C(F)(F)F)c2ccccc2)cc1 | 100 to 110 °C |
| O=S(=O)(c1ccc(Br)cc1)N1CCC1 | 145 °C |
| C=CCOc1cc2c(cc1C)OC1(CC2(C)C)CC(C)(C)c2cc(OCC=C)c(C)cc2O1 | 98 to 100 °C |
| COc1ccc(CN(C)CCc2ccc(NC(=O)c3cccc4c(=O)c5c(OC)c(OC)c(OC)cc5[nH]c34)cc2)cc1OC | 158 °C |
| CC(=O)c1ccc(-n2c(-c3cc(-c4ccccc4)c(N4CCOCC4)s3)nc3ccccc3c2=O)cc1 | > 275 °C |
| CC(=O)OCc1c(C(=O)C(=O)O)c2cc(-c3ccc(OC(F)(F)F)cc3)ccc2n1Cc1ccccc1 | 85 to 86 °C |
| COC(=O)/C(=C/C=C/c1ccc2ccccc2n1)OC | 88 °C |
| NS(=O)(=O)c1cc(C(=O)CCCCN(CCc2ccccc2OC(F)(F)F)C(=O)C(F)(F)F)cc2c1OCC2 | 108 to 110 °C |
| CC(C)Sc1c(N)cccc1C#N | 82 °C |
| Cc1cccc(NC(=O)NC2C(=O)N(C)c3ccccc3N(C34CC5CC(CC(C5)C3)C4)C2=O)c1 (stereo not given) | 245 to 247 °C |
| CC(C)[C@H](NC(=O)N(C)Cc1ccccn1)C(=O)N[C@@H](Cc1ccccc1)C[C@H](O)[C@H](Cc1ccccc1)NC(=O)OCc1cccnc1 | 58 to 61 °C |
| COc1cc(C(C)C)c2c(c1)S(=O)(=O)N(COc1cc(C(F)(F)F)nn1-c1ccncc1)C2=O | 161 to 162 °C |
| CC(C)(C)NC(=O)[C@@H]1C[C@@H]2CCCC[C@@H]2CN1C[C@@H](O)[C@@H](N)Cc1ccccc1 | 175 to 176 °C |
| CCCCCCCCCCOc1cc(OCCCCCCCCCC)cc(N(CC(=O)O)CC(=O)O)c1 | 110 to 114 °C |
| CCCCNC(=O)N1CC(Oc2ccc(C(F)(F)F)cc2)C1 | 132 to 134 °C |
| COc1ccc(N2CCCN(/C(C)=C(/C#N)C(N)=S)CC2)cn1 | 159 to 161 °C |
| CC(Oc1ccccc1[N+](=O)[O-])c1nnc(N)s1 (stereo not given) | 137 to 142 °C |
| CN(C)Cc1ccc(CSCCNc2nc(N)n[nH]2)o1 | 76 to 78.5 °C |

| SMILES | melting point |
| --- | --- |
| COC(=O)C1OC(OC(=O)C(C)C)C(OC(=O)C(C)C)C(OC(=O)C(C)C)C1OC(=O)C(C)C (stereo not given) | 127 °C |
| O=c1[nH]c(=O)n2c3c(cccc13)S(=O)(=O)c1ccc(C(F)(F)F)cc1-2 | 290 to 293 °C |
| CCN(CC)C(=O)Oc1c(N2CCCC2)c(=O)n(-c2ccccc2)c2ncccc12 | 158 to 160 °C |
| Nc1c(Cl)cc(C(O)CNCCCCCCOCCCCCCc2cnccn2)cc1Cl (stereo not given) | 60 to 63 °C |
| CC(C)c1nn(-c2ccc(C(F)(F)F)cn2)cc1CCO | 74 to 75 °C |
| CCCCCc1ccc(OCC23CCC(CCC)(CC2)CC3)c(C#N)c1C#N | 133 °C |
| Cc1cccc(-c2sc(N)nc2-c2ccnc(-c3ccc(OC(F)(F)F)cc3)c2)n1 | 232 °C |
| CCOC=C(C(=O)O)C(=O)C1CC1 | 108 to 113 °C |
| CCCCCCN(Cc1cccnc1)C(Nc1cc(C(C)(C)C)c(O)c(C(C)(C)C)c1)=C1C(=O)OC(C)(C)OC1=O | 134 to 136 °C |
| Cc1oc(-c2ccccc2)nc1CCOc1ccc(C[C@@H](C(=O)O)N2CCN(S(=O)(=O)c3ccc([N+](=O)[O-])cc3)CC2)cc1 | 205 to 207 °C |
| O=C(NCc1ccccc1)c1ccccc1-c1ccccc1CNS(=O)(=O)c1cccc(C(F)(F)F)c1 | 126 °C |
| COc1cc(C(O)C(C)C)cc2c1OC(C)(C)C2 (stereo not given) | 113 to 116 °C |
| CCCCNc1cc(Cl)c2c(c1)C(c1ccccc1F)=NC(C)(C)C(=O)N2C | 113 to 115 °C |
| CC1(C(=O)c2c[nH]c3ncc(-c4cccc(N5CCCC5)c4)nc23)CCCCC1 | 180 to 182 °C |
| CCOC(=O)c1c(C)cc2c(c1C)c(=O)n(-c1ccccc1Cl)c(=O)n2CC(=O)N1CCN(C)CC1 | 64 to 65 °C |
| O=C(c1cccnc1)N1CCC(c2ccccc2)=N1 | 87 to 89 °C |
| Cc1cc(-c2cccc(NC(=O)N[C@@H]3c4cc(C#N)ccc4OC(C)(C)[C@H]3O)c2)no1 | 110 to 120 °C |
| N#CCCC=NNc1ccc(CS(N)(=O)=O)cc1 | 175 to 176 °C |
| CN(C)C1CNc2c(cc(Br)cc2[N+](=O)[O-])C1 (stereo not given) | 88 to 91 °C |
| CC(C)c1cccc(C(C)C)c1NC(=O)CN1CCN(CCSc2nc3cccc(S(C)=O)c3o2)CC1 (stereo not given) | 119 to 120 °C |
| Cc1sc(-c2cccnc2)nc1O | 201 to 202 °C |
| O=[N+]([O-])c1ccc(CCN2CCN(C3CCc4ccccc4C3O)CC2)cc1 (stereo not given) | 155 to 159 °C |

Next, values leading:

| melting point | SMILES |
| --- | --- |
| 220 to 221 °C | CCn1cc(C(=O)O)c(=O)c2cc(F)c(N3CCN(Cc4ccc(N)cc4)CC3)c(F)c21 |
| 244 to 247 °C | Cc1cc(O)ccc1-c1c(C=O)sc(-c2ccc(O)cc2)c1C |
| 97.5 to 99 °C | Cc1cc(C=O)ccc1C(O)c1cccnc1 (stereo not given) |
| 138 °C | Cc1cc(Cl)cc(C(=NCCC(=O)O)c2ccc(Cl)cc2)c1O |
| 136 °C | CCCC1(c2ccccc2Cl)C(=O)Nc2ccc(OCC)cc21 (stereo not given) |
| 82 to 85 °C | Cc1ccc(F)c(-c2ccc(S(=O)(=O)N3c4ccccc4CC3C(=O)NCCOc3ccc(CC(=O)O)cc3)cc2)c1 (stereo not given) |
| 180 °C | O=[N+]([O-])c1cc(Cl)cc(C(O)c2cc(Cl)cc([N+](=O)[O-])c2O)c1O |
| 216 to 217 °C | CC(C)N1C(=O)[C@@H](CC(=O)NCC#N)O[C@H](c2ccccc2Cl)c2cc(Cl)ccc21 (relative stereo) |
| 99 to 100 °C | OCc1cccc2c1CCc1ccsc1-2 |
| 118 to 119 °C | Cc1ccc(C(N)=O)cc1NC(=O)COCCO |
| 47 to 49 °C | Cn1nc(-c2c(F)cccc2Cl)nc1-c1ccc(COc2ncc(C(F)(F)F)cc2Cl)c(Cl)c1 |
| 227 to 229 °C | C#Cc1ccc2c(=O)c(C(=O)OCC)cn(-c3ccc(F)cc3)c2c1 |
| 178 to 179 °C | Cc1nc(N2CCN(Cc3ccccc3)C2=O)sc1C(=O)NCc1cccc(Cl)c1 |
| 112 to 114 °C | CCCC(=O)NCCc1c[nH]c2ccc(OCc3ccccc3)cc12 |
| 309 to 311 °C | COc1cc(OC)c2c(=O)[nH]c(-c3ccc(OCC(N)=O)cc3)nc2c1 |
| 168 to 171 °C | COc1ccccc1COc1ccc2c(c1)C=C(C(=O)O)CCS2(=O)=O |
| 132 to 135 °C | COc1ccc(CNc2nnc(NCCCO)c3ccc(C#N)cc23)cc1Cl |
| 33 to 34 °C | CCSCc1ccc(C(=O)c2ccc(Cl)cc2)cc1 |
| 95 to 97 °C | CCCCC(Cc1ccc(OCCNC(=O)c2ccc(-c3cccc(CN(C)C)c3)cc2)cc1)C(=O)O (stereo not given) |
| 50 to 51 °C | CCOC(=O)CC(=O)c1ccc(Cl)c(C)c1 |
| 132 to 134 °C | CNCC1Oc2cc(F)cc(-c3ccccc3Cl)c2O1 (stereo not given) |
| 148 to 149 °C | Cc1oc(-c2ccccc2)nc1CCOc1ccc(COc2nn(C)cc2CC(=O)O)cc1 |
| 110 to 112 °C | COC(=O)c1c(Cl)cc(Cl)c2cc(Cl)ccc12 |
| 76 to 77.5 °C | O=C(O)Cc1cc(Cl)ccc1OCc1ccccc1 |
| 151 to 153 °C | CCCCC(=O)SCC(Cc1ccccc1)C(=O)Nc1cc(C)cc(C(=O)O)c1 (stereo not given) |
| 204 to 208 °C | Nc1c(-c2ccc(NS(=O)(=O)c3ccccc3Cl)cc2F)cnc2c(CO)cnn12 |
| 288 to 289 °C | O=C(O)C1=Cc2cc(Cl)c(Oc3cccc(C(=O)O)c3)cc2OC1C(F)(F)F (stereo not given) |
| 105 to 106 °C | CCOC(=O)c1ccc(-c2nc(COc3ccc(CO)cc3OC)c(C)o2)o1 |
| 215 to 218 °C | CC(=NO)c1ccc2c(c1)CCc1c(O)cc(O)cc1S2 |

Reference: a melting point compilation (Tetko et al.; mined from patent text by program, amines drawn as free bases though some values may be those of a salt)
